Experimental data: ChEMBL document CHEMBL1201862, “PubChem BioAssay data set” (2004)
Values belong to the molecule of their own block, whether it stands above or below them. Active and inactive are the calls of the source.

What was measured:
Troponin, cardiac muscle = Troponin, cardiac muscle (Homo sapiens, UniProt P19429+P45379+P63316); experiment: Fluorescence-based biochemical high throughput dose response assay for activators of the calcium sensitivity of cardiac Regulated Thin Filaments (RTF). [Related pubchem assays (depositor defined):AID493008, AID493018, AID504382, AID504383]; format: protein-complex assay
[1] = biological target: T1, Type-1 angiotensin II receptor (Homo sapiens, UniProt P30556); experiment: AT1 receptor antagonists, dose response, selectivity assay for APJ receptor antagonist project, cell-based, uHTS hits (AID 463214); format: functional;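 note: antagonist potency against angiotensin II stimulated AT1 response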
T1 sequence (P30556 whole entry): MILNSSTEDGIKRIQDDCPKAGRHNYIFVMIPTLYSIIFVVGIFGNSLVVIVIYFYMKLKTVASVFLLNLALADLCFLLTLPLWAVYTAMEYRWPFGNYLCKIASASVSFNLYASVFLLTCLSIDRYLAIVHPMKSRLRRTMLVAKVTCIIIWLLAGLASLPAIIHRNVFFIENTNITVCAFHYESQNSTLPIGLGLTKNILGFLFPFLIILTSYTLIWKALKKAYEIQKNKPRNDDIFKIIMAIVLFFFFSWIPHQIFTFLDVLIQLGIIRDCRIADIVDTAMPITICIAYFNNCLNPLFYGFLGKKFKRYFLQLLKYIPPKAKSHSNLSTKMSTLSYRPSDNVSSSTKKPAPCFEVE

Beta-galactosidase = Beta-galactosidase (Escherichia coli, UniProt Q8VNN2); experiment: PubChem AID 485352; format: functional
Beta-galactosidase, sequence (Q8VNN2 whole entry): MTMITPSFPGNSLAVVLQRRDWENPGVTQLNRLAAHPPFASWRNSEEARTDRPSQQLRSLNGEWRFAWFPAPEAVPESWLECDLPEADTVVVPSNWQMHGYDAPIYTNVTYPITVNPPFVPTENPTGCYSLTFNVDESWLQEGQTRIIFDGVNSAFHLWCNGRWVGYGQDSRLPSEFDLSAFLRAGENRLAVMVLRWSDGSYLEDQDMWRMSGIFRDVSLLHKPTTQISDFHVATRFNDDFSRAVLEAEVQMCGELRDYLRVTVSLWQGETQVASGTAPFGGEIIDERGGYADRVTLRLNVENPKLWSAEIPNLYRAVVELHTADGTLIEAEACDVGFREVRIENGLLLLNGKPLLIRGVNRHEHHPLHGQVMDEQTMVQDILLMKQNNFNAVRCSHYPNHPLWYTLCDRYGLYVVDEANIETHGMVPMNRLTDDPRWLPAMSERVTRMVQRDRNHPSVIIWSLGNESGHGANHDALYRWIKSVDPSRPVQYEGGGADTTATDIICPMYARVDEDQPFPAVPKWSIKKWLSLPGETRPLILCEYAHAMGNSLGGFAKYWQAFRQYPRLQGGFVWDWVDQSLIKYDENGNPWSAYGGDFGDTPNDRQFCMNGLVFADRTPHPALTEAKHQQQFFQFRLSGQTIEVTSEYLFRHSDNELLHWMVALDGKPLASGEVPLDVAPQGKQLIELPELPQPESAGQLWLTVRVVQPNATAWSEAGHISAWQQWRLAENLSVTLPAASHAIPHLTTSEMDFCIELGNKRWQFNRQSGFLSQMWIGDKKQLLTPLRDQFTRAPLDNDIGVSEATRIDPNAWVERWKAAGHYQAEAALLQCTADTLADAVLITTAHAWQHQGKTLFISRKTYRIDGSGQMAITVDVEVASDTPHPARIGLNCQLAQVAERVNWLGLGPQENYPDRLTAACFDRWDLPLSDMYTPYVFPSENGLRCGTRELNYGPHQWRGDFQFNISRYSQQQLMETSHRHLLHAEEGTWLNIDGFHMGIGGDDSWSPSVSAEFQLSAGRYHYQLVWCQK

P388 = experiment: cells; format: functional; details: Mus musculus
SN12K1 = experiment: cells; format: functional; details: Homo sapiens
P388/ADR = experiment: cells; format: functional; details: Mus musculus
Coagulation factor XII = biological target: T2, Coagulation factor XII (Homo sapiens, UniProt P00748); format: functional;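 note: activated factor XIIa alpha cleaving a fluorogenic AMC peptide substrate; inhibitor potency from loss of enzyme activity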
T2 sequence (P00748 whole entry): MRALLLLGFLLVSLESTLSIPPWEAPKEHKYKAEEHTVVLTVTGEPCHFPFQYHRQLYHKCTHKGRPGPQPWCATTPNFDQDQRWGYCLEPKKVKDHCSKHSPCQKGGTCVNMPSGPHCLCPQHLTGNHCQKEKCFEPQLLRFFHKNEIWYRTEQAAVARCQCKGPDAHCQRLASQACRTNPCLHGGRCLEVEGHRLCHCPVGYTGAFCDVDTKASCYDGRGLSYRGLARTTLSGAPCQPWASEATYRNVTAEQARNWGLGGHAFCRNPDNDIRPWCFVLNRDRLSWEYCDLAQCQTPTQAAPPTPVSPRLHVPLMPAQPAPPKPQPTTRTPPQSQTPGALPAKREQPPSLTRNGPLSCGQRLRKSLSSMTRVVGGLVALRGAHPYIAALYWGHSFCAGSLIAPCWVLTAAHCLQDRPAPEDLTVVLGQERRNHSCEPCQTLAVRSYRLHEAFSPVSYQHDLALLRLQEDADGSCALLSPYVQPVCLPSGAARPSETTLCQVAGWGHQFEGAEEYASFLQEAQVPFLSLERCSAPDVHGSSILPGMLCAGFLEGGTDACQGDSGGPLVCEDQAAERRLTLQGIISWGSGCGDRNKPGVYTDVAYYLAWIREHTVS

[2] = HEK293 cell cytotoxicity, dose response, cytotoxicity control, plate reader, cherry-picked samples (AID 743446); format: functional, cell-based
[3] = A549 cell cytotoxicity, dose response, cytotoxicity control, plate reader, cherry-pick, antagonist series (AID 743412); format: functional, cell-based
[4] = MC4R antagonists, dose response, counter-screen for LGR2 antagonist project, cell-based, plate reader, cherry pick (AID 743444); format: functional;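 note: transfected HEK 293 cells stimulated with alpha-MSH peptide; potency of inhibitors of the alpha-MSH evoked signal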
[5] = HepG2 cell cytotoxicity, dose response, cytotoxicity control, plate reader, cherry-pick, antagonist series (AID 743416); format: functional, cell-based
[6] = LGR2 antagonists, dose response, cell-based, HEK293, CRE-luciferase reporter, cherry pick, set 2 (AID 743343); format: functional;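 note: transfected cells were stimulated with diluted bursicon conditioned medium after compound addition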
[7] = biological target: Peroxisome proliferator-activated receptor gamma/Nuclear receptor coactivator 2 (Homo sapiens, UniProt P37231); experiment: (§1) TR-FRET dose response biochemical High Throughput Screening assay for agonists of the steroid receptor coactivator 2 (SRC-2) recruitment by the peroxisome proliferator-activated receptor gamma (PPAR gamma): non-selective agonists. [Related pubchem assays: 1297, 1032 ]; format: functional
[8] = biological target: Peroxisome proliferator-activated receptor gamma/Nuclear receptor coactivator 3 (Homo sapiens, UniProt P37231); experiment: as §1, with “3 (SRC-3)” for “2 (SRC-2)”, “1301 (Confirmation screen.), 1048 (Primary screen.)]” for “1297, 1032 ]”; format: functional
Peroxisome proliferator-activated receptor gamma/Nuclear receptor coactivator 3, sequence (P37231 whole entry): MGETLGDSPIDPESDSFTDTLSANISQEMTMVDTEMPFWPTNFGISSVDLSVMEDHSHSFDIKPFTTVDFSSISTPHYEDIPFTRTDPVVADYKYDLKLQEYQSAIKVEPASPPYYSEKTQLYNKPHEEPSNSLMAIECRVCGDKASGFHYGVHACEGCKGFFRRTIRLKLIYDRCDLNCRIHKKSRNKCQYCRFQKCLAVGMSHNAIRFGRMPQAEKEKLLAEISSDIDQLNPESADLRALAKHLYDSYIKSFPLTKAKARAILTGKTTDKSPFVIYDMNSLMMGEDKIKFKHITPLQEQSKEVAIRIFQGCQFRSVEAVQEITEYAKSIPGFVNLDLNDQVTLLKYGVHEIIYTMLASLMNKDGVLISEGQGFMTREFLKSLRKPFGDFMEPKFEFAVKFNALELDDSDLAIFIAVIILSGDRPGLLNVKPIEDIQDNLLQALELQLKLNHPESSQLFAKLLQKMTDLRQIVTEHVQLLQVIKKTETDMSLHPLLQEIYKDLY
Peroxisome proliferator-activated receptor gamma/Nuclear receptor coactivator 3, sequence (Q9Y6Q9 whole entry, further chain): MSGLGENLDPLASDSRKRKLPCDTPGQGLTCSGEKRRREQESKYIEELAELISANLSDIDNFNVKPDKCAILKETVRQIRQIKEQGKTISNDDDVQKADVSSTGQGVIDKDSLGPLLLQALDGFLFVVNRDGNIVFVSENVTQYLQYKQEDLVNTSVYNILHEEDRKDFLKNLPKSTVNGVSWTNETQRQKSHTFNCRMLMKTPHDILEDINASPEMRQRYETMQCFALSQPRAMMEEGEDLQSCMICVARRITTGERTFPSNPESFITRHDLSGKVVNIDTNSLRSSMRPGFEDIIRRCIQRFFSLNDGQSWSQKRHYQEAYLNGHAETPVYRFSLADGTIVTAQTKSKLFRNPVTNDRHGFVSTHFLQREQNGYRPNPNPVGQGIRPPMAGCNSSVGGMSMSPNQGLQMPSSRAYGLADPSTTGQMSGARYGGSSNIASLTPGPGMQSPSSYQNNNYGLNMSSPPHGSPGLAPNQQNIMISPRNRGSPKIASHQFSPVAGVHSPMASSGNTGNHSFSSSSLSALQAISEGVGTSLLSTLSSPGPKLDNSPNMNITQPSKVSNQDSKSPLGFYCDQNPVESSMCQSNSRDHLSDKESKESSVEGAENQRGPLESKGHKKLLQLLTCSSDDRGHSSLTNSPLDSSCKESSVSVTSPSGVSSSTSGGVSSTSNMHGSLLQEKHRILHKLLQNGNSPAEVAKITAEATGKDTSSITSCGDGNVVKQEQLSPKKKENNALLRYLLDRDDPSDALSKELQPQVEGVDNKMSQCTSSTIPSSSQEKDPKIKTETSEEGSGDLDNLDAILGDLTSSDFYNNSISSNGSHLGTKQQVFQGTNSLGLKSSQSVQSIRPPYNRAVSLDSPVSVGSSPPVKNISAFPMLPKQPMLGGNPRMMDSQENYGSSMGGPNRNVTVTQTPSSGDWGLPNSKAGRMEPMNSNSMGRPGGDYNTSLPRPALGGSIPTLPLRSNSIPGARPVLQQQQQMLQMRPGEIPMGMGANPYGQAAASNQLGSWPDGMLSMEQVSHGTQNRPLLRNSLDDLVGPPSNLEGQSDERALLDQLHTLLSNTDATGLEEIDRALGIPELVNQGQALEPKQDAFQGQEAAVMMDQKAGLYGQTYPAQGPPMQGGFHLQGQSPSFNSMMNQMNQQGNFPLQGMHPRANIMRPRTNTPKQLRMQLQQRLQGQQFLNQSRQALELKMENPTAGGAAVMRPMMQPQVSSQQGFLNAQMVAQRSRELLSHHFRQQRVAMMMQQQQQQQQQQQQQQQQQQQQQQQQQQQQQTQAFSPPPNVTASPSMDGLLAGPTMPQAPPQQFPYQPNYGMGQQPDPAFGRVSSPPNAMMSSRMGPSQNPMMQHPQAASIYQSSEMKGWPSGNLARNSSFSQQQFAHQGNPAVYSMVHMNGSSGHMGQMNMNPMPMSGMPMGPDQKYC

[9] = biological target: Peroxisome proliferator-activated receptor gamma/Nuclear receptor coactivator 1 (Homo sapiens, UniProt P37231); experiment: as §1, with “1 (SRC-1)” for “2 (SRC-2)”, “assays (depositor defined):AID1300, AID1808, AID504735, AID631]” for “assays: 1297, 1032 ]”; format: protein assay
Peroxisome proliferator-activated receptor gamma/Nuclear receptor coactivator 1, sequence (P37231 whole entry): as the sequence (P37231 whole entry) above
Peroxisome proliferator-activated receptor gamma/Nuclear receptor coactivator 1, sequence (Q15788 whole entry, further chain): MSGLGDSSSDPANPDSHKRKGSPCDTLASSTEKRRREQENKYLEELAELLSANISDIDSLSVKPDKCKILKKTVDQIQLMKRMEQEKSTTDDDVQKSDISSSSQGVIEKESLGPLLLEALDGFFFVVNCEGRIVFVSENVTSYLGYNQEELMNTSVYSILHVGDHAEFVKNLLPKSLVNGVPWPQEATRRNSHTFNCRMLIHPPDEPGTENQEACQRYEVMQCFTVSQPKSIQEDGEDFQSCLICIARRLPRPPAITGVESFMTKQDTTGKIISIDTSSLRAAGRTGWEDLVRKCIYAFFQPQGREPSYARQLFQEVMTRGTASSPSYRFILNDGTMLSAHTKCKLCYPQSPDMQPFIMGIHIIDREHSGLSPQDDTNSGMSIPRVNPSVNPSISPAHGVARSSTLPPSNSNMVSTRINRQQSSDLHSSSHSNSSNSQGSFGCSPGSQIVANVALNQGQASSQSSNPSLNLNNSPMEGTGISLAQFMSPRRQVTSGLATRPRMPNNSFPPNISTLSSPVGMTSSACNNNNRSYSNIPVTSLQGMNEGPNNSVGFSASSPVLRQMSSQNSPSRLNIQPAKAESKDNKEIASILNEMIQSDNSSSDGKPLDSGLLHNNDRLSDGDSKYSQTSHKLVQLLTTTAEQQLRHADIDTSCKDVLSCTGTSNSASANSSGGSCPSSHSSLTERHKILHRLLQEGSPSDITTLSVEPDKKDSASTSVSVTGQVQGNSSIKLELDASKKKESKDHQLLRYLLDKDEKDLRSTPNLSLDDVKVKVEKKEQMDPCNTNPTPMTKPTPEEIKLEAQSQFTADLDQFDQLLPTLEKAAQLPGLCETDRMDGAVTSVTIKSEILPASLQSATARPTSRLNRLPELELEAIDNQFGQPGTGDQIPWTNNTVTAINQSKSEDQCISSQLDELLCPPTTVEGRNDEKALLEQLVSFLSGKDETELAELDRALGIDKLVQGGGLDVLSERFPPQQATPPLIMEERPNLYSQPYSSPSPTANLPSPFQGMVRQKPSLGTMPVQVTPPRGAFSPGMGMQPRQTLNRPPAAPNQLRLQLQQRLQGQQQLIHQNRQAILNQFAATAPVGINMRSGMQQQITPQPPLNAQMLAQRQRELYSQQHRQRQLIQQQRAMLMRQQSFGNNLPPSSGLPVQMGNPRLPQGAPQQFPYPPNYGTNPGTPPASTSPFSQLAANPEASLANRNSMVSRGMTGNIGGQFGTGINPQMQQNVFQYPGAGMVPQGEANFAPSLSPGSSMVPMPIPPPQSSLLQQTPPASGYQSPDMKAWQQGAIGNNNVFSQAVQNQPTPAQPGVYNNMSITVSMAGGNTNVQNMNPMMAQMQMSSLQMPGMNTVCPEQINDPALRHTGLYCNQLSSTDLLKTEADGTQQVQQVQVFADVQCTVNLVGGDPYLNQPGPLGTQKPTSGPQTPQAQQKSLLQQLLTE

[10] = cytotoxicity in HEK-293T cells, dose response, cytotoxicity control for BCR NF-kB inhibitor project, luminescence, B-cell screen hits (AID 489021); format: functional, cell-based;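 note: HEK-293T cells carrying an NF-kB luciferase reporter; cells exposed to compound for about 14 hours before viability readout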
[11] = Luminescence Cell-Based Dose Retest to Confirm Inhibitors of Cancer Stem Cells. [Related pubchem assays (depositor defined):AID2717, AID2721]; format: functional; details: Homo sapiens
CHO = experiment: cytotoxicity in TLR9-MyD88 CHO cells, dose response, cytotoxicity control for TLR9-MyD88 binding inhibitor project, cell-based, luminescence (AID 588339); format: functional, hamster; details: Cricetulus griseus;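 note: CHO cells stably coexpressing TLR9 and MyD88 fusions from primary screen; compound exposure lasted 48 hours before viability readout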
Prothrombin = Prothrombin (Homo sapiens, UniProt P00734); experiment: Thrombin 1536 HTS Dose Response Confirmation. [Related pubchem assays: 1046 (Thrombin 1536 HTS; hits were confirmed in this assay)]; format: functional

EC50 (Troponin, cardiac muscle): > 71.4 µM (inactive)
Compound: CN(C)NC(=O)c1ccc([N+](=O)[O-])s1

IC50 [1]: 33.6 µM (not active)
EC50 (Beta-galactosidase): > 40 µM (inactive)
Compound: Cc1ccc(C(=O)COC(=O)CN2C(=O)C3CC=CCC3C2=O)cc1[N+](=O)[O-] (stereo not drawn)

Compound: Cc1c2cnccc2c(C)c2c1c1ccccc1n2CCCCCCNCc1ccccc1
GI50 (P388): 0.269 µM (active)
GI50 (SN12K1): 1.02 µM (active)
GI50 (P388/ADR): 0.246 µM (active)

IC50 (Coagulation factor XII): 12.2 µM (active)
Compound: COC(=O)c1nnc(NC(C)=O)[nH]1

Compound: Cc1ccc(-c2cc3c(nn2)-c2ccccc2C3=O)cc1
AC50 [2]: 18.3 µM (active)
AC50 [3]: 25.5 µM (active)
AC50 [4]: 1.65 µM (active)
AC50 [5]: 35.8 µM (active)
IC50 [1]: 2.89 µM (active)
AC50 [6]: 1.11 µM (active)
EC50 (Beta-galactosidase): > 40 µM (inactive)

EC50 [7]: 8.44 µM (active)
EC50 [8]: > 79.4 µM (not active)
EC50 [9]: 7.72 µM (active)
Compound: Cc1ccc(S(=O)(=O)c2nc(-c3cccs3)oc2SCC(N)=O)cc1

EC50 (Troponin, cardiac muscle): 15.2 µM (inactive)
Compound: CC(C(=O)c1ccc(Br)cc1)[n+]1cccc2ccccc21 (stereo not drawn)

Compound: COC(=O)c1c(-c2ccc(N(C)C)cc2)sc2ccc(OC)cc12
IC50 [10]: > 80 µM (inactive)
AC50 [11]: 3.3 µM (active)
IC50 (CHO): > 49.7 µM (inactive)

IC50 (Coagulation factor XII): > 50 µM (inactive)
IC50 (Prothrombin): > 50 µM (inconclusive)
Compound: CC(=O)NNC(=S)NC(=O)c1ccccc1
